# Data taken from PubChem BioAssay (NCI).
#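 Method: 48-hour compound exposure of cells in 96-well plates, five concentrations, linear interpolation of endpoints. GI50: concentration for 50% inhibition of growth. TGI is the concentration that stops growth completely.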
# System: IGROV1 ovarian
# Assay: growth of human tumour cells (NCI), 48 h
Compound,GI50,TGI
CCC#CC[C@H]1C/C=C2/C(=O)C=C[C@@H]2C/C=C\CCCC(=O)O1,1.47 µM,4.33 µM
COc1cc[nH]c1/C=C1\C(=O)Nc2ccccc21,8.48 µM,> 25 µM
O=C(Nc1ccc(Cl)cc1)c1cc(-c2ccc(F)cc2)c2sc(=O)[nH]c2n1,1.78 µM,7.06 µM
COc1cc(NC(=O)c2cc(O)c(CC=C(C)C)c(O)c2)cc2c1O[C@]1(C)CC[C@@H](O)C(C)(C)[C@H]1C2,7.51 µM,54.9 µM
Cc1ccc(C(=NN=C(N)N)c2ccc(C)cc2)cc1,0.644 µM,7.64 µM
Clc1nc(Cl)c2ncn(Cc3cccc(COc4cccc(OCc5cccc(Cn6cnc7c(Cl)nc(Cl)nc76)c5)c4)c3)c2n1,60.8 µM,> 100 µM
CN(C)c1ccc(N)cc1,4.04 µM,23.8 µM
CCS(=O)(=O)c1ccc(OC)c(Nc2ncc(-c3cccc(OC)c3)o2)c1,6.8 µM,> 20.7 µM
CC(C)c1ccc(C(=O)Nc2sc3c(c2C(N)=O)CCC(=O)C3)cc1,0.491 µM,2.14 µM

# System: NCI-H522 lung
# Assay: growth of human tumour cells (NCI), 48 h
Compound,GI50,TGI
O=C(c1cccc(O)c1O)c1cn(Cc2ccc(F)cc2)c2cccc(O)c12,1.38 µM,8.08 µM
Nc1ncc(-c2cnn(CCO)c2)c2scc(-c3ccc(NC(=O)Nc4cccc(F)c4)cc3)c12,0.449 µM,2.29 µM
COc1cc(C2=NN(C(C)=O)C(c3ccc(OC(C)=O)cc3OC(C)=O)O2)c(OC(C)=O)c2ccccc12 (stereo not given),1.19 µM,11 µM
COC(=O)Nc1nc2ccc(Oc3ccc(NC(=O)Nc4ccccc4)cc3)cc2[nH]1,0.0686 µM,0.667 µM
O=C1c2c(Br)sc(Br)c2C(NC(=O)C(F)(F)F)C1O (stereo not given),,27.3 µM
CCN(CC)CCCC(C)Nc1c(C)cnc2cc(Cl)c(C)cc12 (stereo not given),23 µM,53.1 µM
CC(=O)OC1CC(O)C23COC(O)C1(C)C2CC(O)C1(C)C3C(=O)C(O)C2(C)C(c3ccoc3)CC3OC321 (stereo not given),0.401 µM,> 100 µM
CCCCCCCC(CC(=O)NC(CO)C(=O)NC(CO)CC(C)C)OC(=O)CC(CCCCCCC)OC(=O)CC(CCCCCCC)OC1OC(C)C(O)C(OC2OC(C)C(O)C(OC(C)=O)C2O)C1O (stereo not given),,28.4 µM
COc1ccc(C(C)c2cc3c(cc2OC)OCO3)cc1 (stereo not given),,0.438 µM
CCc1[nH]c(=O)nc(N)c1-c1ccc(N2CCCCC2)c([N+](=O)[O-])c1,,> 100 µM
CCC#CC[C@H]1C/C=C2/C(=O)C=C[C@@H]2C/C=C\CCCC(=O)O1,0.663 µM,1.83 µM
COc1cc[nH]c1/C=C1\C(=O)Nc2ccccc21,12.7 µM,> 25 µM
O=C(Nc1ccc(Cl)cc1)c1cc(-c2ccc(F)cc2)c2sc(=O)[nH]c2n1,0.478 µM,5.42 µM
COc1cc(NC(=O)c2cc(O)c(CC=C(C)C)c(O)c2)cc2c1O[C@]1(C)CC[C@@H](O)C(C)(C)[C@H]1C2,3.42 µM,12.3 µM
Cc1ccc(C(=NN=C(N)N)c2ccc(C)cc2)cc1,0.335 µM,1.19 µM
Clc1nc(Cl)c2ncn(Cc3cccc(COc4cccc(OCc5cccc(Cn6cnc7c(Cl)nc(Cl)nc76)c5)c4)c3)c2n1,41.1 µM,> 100 µM
CN(C)c1ccc(N)cc1,1.94 µM,7.84 µM
CCS(=O)(=O)c1ccc(OC)c(Nc2ncc(-c3cccc(OC)c3)o2)c1,8.58 µM,22.5 µM
CC(C)c1ccc(C(=O)Nc2sc3c(c2C(N)=O)CCC(=O)C3)cc1,0.316 µM,1.56 µM

# System: OVCAR-4 ovarian
# Assay: growth of human tumour cells (NCI), 48 h
Compound,GI50,TGI
O=C(c1cccc(O)c1O)c1cn(Cc2ccc(F)cc2)c2cccc(O)c12,3.13 µM,16.2 µM
Nc1ncc(-c2cnn(CCO)c2)c2scc(-c3ccc(NC(=O)Nc4cccc(F)c4)cc3)c12,0.299 µM,11.4 µM
COc1cc(C2=NN(C(C)=O)C(c3ccc(OC(C)=O)cc3OC(C)=O)O2)c(OC(C)=O)c2ccccc12 (stereo not given),0.306 µM,8.64 µM
COC(=O)Nc1nc2ccc(Oc3ccc(NC(=O)Nc4ccccc4)cc3)cc2[nH]1,0.207 µM,5.68 µM
O=C1c2c(Br)sc(Br)c2C(NC(=O)C(F)(F)F)C1O (stereo not given),,34.8 µM
CCN(CC)CCCC(C)Nc1c(C)cnc2cc(Cl)c(C)cc12 (stereo not given),10.2 µM,35.7 µM
CC(=O)OC1CC(O)C23COC(O)C1(C)C2CC(O)C1(C)C3C(=O)C(O)C2(C)C(c3ccoc3)CC3OC321 (stereo not given),,> 100 µM
CCCCCCCC(CC(=O)NC(CO)C(=O)NC(CO)CC(C)C)OC(=O)CC(CCCCCCC)OC(=O)CC(CCCCCCC)OC1OC(C)C(O)C(OC2OC(C)C(O)C(OC(C)=O)C2O)C1O (stereo not given),,27.8 µM
COc1ccc(C(C)c2cc3c(cc2OC)OCO3)cc1 (stereo not given),,> 100 µM
CCc1[nH]c(=O)nc(N)c1-c1ccc(N2CCCCC2)c([N+](=O)[O-])c1,,> 100 µM
CCC#CC[C@H]1C/C=C2/C(=O)C=C[C@@H]2C/C=C\CCCC(=O)O1,1.5 µM,7.94 µM
COc1cc[nH]c1/C=C1\C(=O)Nc2ccccc21,8.02 µM,> 25 µM
O=C(Nc1ccc(Cl)cc1)c1cc(-c2ccc(F)cc2)c2sc(=O)[nH]c2n1,1.99 µM,9.12 µM
COc1cc(NC(=O)c2cc(O)c(CC=C(C)C)c(O)c2)cc2c1O[C@]1(C)CC[C@@H](O)C(C)(C)[C@H]1C2,7.52 µM,> 100 µM
Cc1ccc(C(=NN=C(N)N)c2ccc(C)cc2)cc1,1.7 µM,13.8 µM
Clc1nc(Cl)c2ncn(Cc3cccc(COc4cccc(OCc5cccc(Cn6cnc7c(Cl)nc(Cl)nc76)c5)c4)c3)c2n1,32 µM,> 100 µM
CN(C)c1ccc(N)cc1,1.74 µM,3.45 µM
CCS(=O)(=O)c1ccc(OC)c(Nc2ncc(-c3cccc(OC)c3)o2)c1,13.5 µM,> 25 µM
CC(C)c1ccc(C(=O)Nc2sc3c(c2C(N)=O)CCC(=O)C3)cc1,0.329 µM,1.2 µM
